Reference: US20250093329A1, “SCREENING OF COMPOUNDS” (THE UNIVERSITY OF TULSA, priority 2022, published 2025)
Entries after “also recorded” stand apart in the source; their conditions may differ.

What was measured:
[1] = system: BxPC3; experiment: ATP levels by CellTiter-Glo, compound alone or with metabolic inhibitor (Table 1); format: cell-based; conditions: compound 100 uM + 2DG (about 10-20 mM), DMEM + 10% FBS, two hour incubation, DMSO control
Description: The improved method for identifying such compounds measures ATP levels as a function of light emitted by any ATP dependent luciferase or modified luciferases, i.e. luciferase derivatives. The method uses a conventional luminescent assay to determine the number of viable cells in a culture. The improvement provided by the present method results from pre-treating cells used in the assays with a metabolic inhibitor prior to treatment with the compound of interest, or switching the cells to a media formulated to force use of a specific metabolic pathway. Luminescent assays for determining cytotoxicity are well known in the art. […]
Following treatment of the control and test cells with the metabolic inhibitor (or switching to a new media), the method calls for addition of the compound to be screened for anti-cancer properties to the cells. […] Following completion of the selected time period, the ATP level within the cell is determined. ATP levels can be determined by luminescence according to standard measuring procedures, i.e. the luminescence level of the assay from the living cells treated with the two component composition is compared to the luminescence level of the assay from the living cells without the two component composition, i.e., the control experiment. […]

[2] = system: H293; experiment: Cytotoxicity testing, CellTiter-Blue assay, 24 hour (FIG. 3); format: cell-based; conditions: 100 μM, 24 hour compound incubation
Procedure: The cytotoxicity tests were carried out in the following manner. Living cells are known to convert resazurin to the fluorescent compound resorufin. Test systems which rely upon this reaction are commercially available. One such test is known at the Cell Titer Blue Cell Viability test assay from Promega. Cell cultures for each of the identified cancer lines were obtained from ATCC and maintained in Dulbecco's Modified Eagle Medium (DMEM) supplemented with 10% fetal bovine serum (FBS) and pen/strep. As known to those skilled in the art, DMEM typically includes the components identified below.
The test method provides for incubating the cell cultures at temperatures which correspond to the range of body temperatures experienced by the patient from which the cancer cells were obtained. Typically, incubation temperatures will be between the temperatures of 36.1° C. and 37.2° C. In most cases incubation will occur at 37° C. Additionally, the cell cultures are kept under an atmosphere which mimics cell conditions of the tumor within the patient's body. In most cases, the tumor microenvironment (TME) is characterized by hypoxia (low oxygen) and may also be characterized by hypercapnia (increased CO2). Hypercapnia results from decreased blood flow which limits CO2 elimination. Restricted CO2 elimination leads to increased HCO3^− conversion to CO2 in order to neutralize lactate as altered tumor cell metabolism produces more CO2 than normal. Normal tissue averages about 5% oxygen with oxygen ranges from about 3% to 7.4%. […] In the case of CO2, normocapnic is around 5% CO2, while hypercapnic can rise to 10% CO2. Therefore, to mimic the environment of the tumor the method utilizes an incubator designed to provide the optimal gaseous environment corresponding to that of the tumor. Thus, the incubator will be capable of maintaining an atmosphere having an oxygen content in the range of […] and a CO2 in the range of 1% to 10%.
After allowing for proliferation of the cells, the cells were distributed across a plurality of test wells containing from 100 μL DMEM plus 10% FBS and allowed to attach to the surface of the test wells. Typically, the time for attachment will require about 12 hours to about 18 hours. […] Following treatment of the cells with the N-benzyl sulfonamide or control, the toxicity of the compound to the cells will be determined by addition of a luminescing agent. […] Subsequently, the fluorescence of resazurin is measured by excitation at 560 nm and recording the emission at 590 nm within an instrument configured to measure fluorescence intensity. Two commercially available systems are the BioTek Cytation 5 plate reader and the Promega Glomax Multi+detection system. […]

O=S(=O)(NCc1c[nH]c2ccccc12)c1ccc(Cl)cc1 [Compound 2, N-[(1H-indol-3-yl)methyl]-4-chlorobenzenesulfonamide]
percent of control (POC), ATP luminescence [1]: remarkable value; also recorded: effectiveness | effectiveness, percent reduction in cell viability (FIG. 3) [2]: effective
